Assay results reported in patent US20250073235A1, “INHIBITION OF MAST CELL TUMOR NECROSIS FACTOR FOR THERAPEUTIC USE” (The University of Southern Mississippi, priority 2023, published 2025).
“Also recorded” adds a separate entry of the source.

What was measured:
[1] = system: RBL-2H3 cells; assay: total TNF protein level (ELISA), IgE/TNP-BSA activated mast cells; format: cell-based, rat; conditions: for total TNF level, normalized against DMSO: FIG. 19; for overall level of TNF (total TNF protein): 1 hour
Procedure: (§1) Sub-confluent RBL-2H3 cells (85%) grown on a 6-well plate were sensitized with 0.5 μg/ml anti-TNP IgE (BD Biosciences) and activated by 25 ng/ml TNP^(26)-BSA (Santa-Cruz) in RPMI 1640 (Corning) containing 0.1% BSA as described. The supernatant (around 1 ml) was collected from resting (no exposure to IgE) and activated (IgE and TNP-BSA) cells respectively and centrifuged at 500 g for 5 min at 4° C. to clear any cell debris. In the meantime, the cells attached to the bottom of the 6-well plates were lysed in 1 ml of cell culture medium, RPMI 1640 containing 0.1% BSA and 0.5% Triton X-100 for 5 min at RT. The lysate was centrifuged at 15,000 g for 5 min at 4° C. to clear any Triton-insoluble biomass. The cleared supernatant or lysate was separated into 3 aliquots: 800 μl were lyophilized for TNF assay; 50 μl were stored at −20° C. for serotonin and histamine assays; and the rest was used immediately for β-hexosaminidase assay.
(§2) β-hexosaminidase activity and TNF protein level were measured as commonly used in the art. To quantify histamine with an Enzyme Immunoassay (EIA) kit (EA213/96; Eagle Biosciences), the supernatant and cell lysates were diluted 100-fold in RPMI. Fifty μl of the diluted samples were then subject to acylation reaction and ELISA by following the manufacturer's instructions. To measure the level of serotonin, the supernatant and cell lysates were diluted 1:625 fold with standard buffer (EA630/96; Eagle Biosciences), 20 μl of which were subject to acylation and subsequent ELISA according to the manufacturer's instructions.
RBL-2H3 cells and derivatives growing in 6-well plates were sensitized for 3 h with 0.5 μg/mL mouse anti-TNP ([…]) IgE (BD Pharmingen) and stimulated with 25 ng/mL of TNP(26)-BSA (Santa Cruz). β-hexosaminidase activities and TNF levels in the supernatant and the cell lysates were quantified as previously described. […]. Reverse transcription and PCRs RBL-2H3 cells (˜40% confluent) cultured in a 24-well plate were treated with 250 μL of 0.25% Trypsin-EDTA (Gibco) that was subsequently neutralized with 750 μL of complete medium. About […] were collected for RT-qPCR (quantitative PCR) using TaqMan Gene Expression Cells-to-CT Kit (ThermoFisher Scientific) according to the manufacturer's instructions. Fluorescently labeled, target-specific probes ((3-actin: Rn00667869_ml; TNFR1: Rn01492348_ml; and TNFR2: Rn00709830_ml) were purchased from Thermofisher Scientific. The Cq values of TNFRs were standardized against that of β-actin utilizing the Bio-Rad CFX Maestro software and then the relative levels of mRNA expression were determined. For electrophoresis, TNFR1 was amplified from cDNA (prepared with the same TaqMan Gene Expression Cells-to-CT Kit described earlier) using […]-3′ (SEQ ID NO: 11) and 5′-[…]-3′ (SEQ ID NO: 12) as forward and reverse primers, whereas TNFR2 was amplified using 5′-[…]-3′ (SEQ ID NO: 13) and 5′-[…]-3′ (SEQ ID NO: 14) as forward and reverse primers. PCR was conducted in a 20 μL mixture containing 1× One Taq Master Mix (NEB) and 200 nM of primers. Where specified, 1 μL of rat universal cDNA (BioChain) was used as positive control.

[2] = system: RBL-2H3 cells; assay: TNF secretion assay (ELISA), IgE/TNP-BSA activated mast cells; format: cell-based, rat; conditions: for TNF secretion (% of total TNF in the supernatant), normalized against DMSO: inhibitor added to sensitized RBL-2H3 cells 30 min before TNP-BSA, FIG. 19
Procedure: as §1, §2
(§3) The absolute value for the exocytosis of each mediator (V) was expressed as the percentage of the signal released into the supernatant (MS) relative to the total signal in the supernatant and in the lysate [V=MS/(MS+ML)%]. The value for IgE/allergen-dependent exocytosis was calculated by subtracting the value of the activated samples with the value of the resting samples (VE=VA−VR).
(§4) RBL-2H3 cells and derivatives growing in 6-well plates were sensitized for 3 h with 0.5 μg/mL mouse anti-TNP ([…]) IgE (BD Pharmingen) and stimulated with 25 ng/mL of TNP(26)-BSA (Santa Cruz). β-hexosaminidase activities and TNF levels in the supernatant and the cell lysates were quantified as previously described. […]. Reverse transcription and PCRs RBL-2H3 cells (˜40% confluent) cultured in a 24-well plate were treated with 250 μL of 0.25% Trypsin-EDTA (Gibco) that was subsequently neutralized with 750 μL of complete medium. About […] were collected for RT-qPCR (quantitative PCR) using TaqMan Gene Expression Cells-to-CT Kit (ThermoFisher Scientific) according to the manufacturer's instructions. […]

[3] = system: RBL-2H3 cells; assay: β-hexosaminidase secretion assay, IgE/TNP-BSA activated mast cells; format: cell-based, rat; conditions: for β-hexosaminidase secretion (% of total activity in the supernatant), normalized against DMSO: inhibitor added to sensitized RBL-2H3 cells 30 min before TNP-BSA, FIG. 19
Procedure: as §1, §2, §3, §4

[4] = system: activated mast cells; conditions: reference [31]; cited from earlier work
[5] = system: activated mast cells; conditions: reference [31]; cited from earlier work; remark: listed apart in the source
[6] = inhibitor added to sensitized RBL-2H3 cells 30 min before TNP-BSA

Molecule: CCOc1cc(C(=O)N2CCC(N3CCN(C)CC3)CC2)ccc1Nc1ncc2c(n1)N(S(C)(=O)=O)c1ccccc1C(=O)N2C [AX-15836]
- reduction in total TNF level ([1]; inhibitor added to sensitized RBL-2H3 cells 30 min before TNP-BSA, statistically significant, FIG. 19B): 10%

Molecule: Cc1ccc(-n2nc(C(C)(C)C)cc2NC(=O)Nc2ccc(OCCN3CCOCC3)c3ccccc23)cc1 [Doramapimod/BIRB 796, Doramapimod]
- TNF secretion (% of total TNF in the supernatant), normalized against DMSO [2]: did not seem to affect exocytosis
- total TNF level, normalized against DMSO [1, 6]: did not seem to affect exocytosis or significantly reduce TNF proliferation
- β-hexosaminidase secretion (% of total activity in the supernatant), normalized against DMSO [3]: did not seem to affect exocytosis

Molecule: Cc1cc(NC(=O)c2cccc(NC(=O)/C=C/CN(C)C)c2)ccc1Nc1nccc(-c2cccnc2)n1 [JNK-IN-8]
- TNF secretion (% of total TNF in the supernatant), normalized against DMSO [2]: without impacting
- total TNF level, normalized against DMSO [1, 6]: diminished TNF level drastically
- β-hexosaminidase secretion (% of total activity in the supernatant), normalized against DMSO [3]: without impacting

Molecule: CC#CCOc1ccc(S(=O)(=O)CC(c2ccc(CNS(C)(=O)=O)cc2)N(O)C=O)cc1 (centres unmarked) [KP-457]
- amount of sTNF protein released into the supernatant ([2]; sensitized RBL-2H3 cells, inhibitor added along with TNP-BSA, concentrations between 0.3 M and 10 μM, 1 hour, FIG. 18B): significantly reduced
- overall level of TNF (total TNF protein) ([1]; allergen-triggered RBL-2H3 cells, inhibitor added along with TNP-BSA, FIG. 18C): inhibited the overall level of TNF; also recorded: TNF production is diminished
- exocytosis of β-hexosaminidase ([3]; sensitized RBL-2H3 cells, inhibitor added along with TNP-BSA, concentrations between 0.3 M and 10 μM, 1 hour, FIG. 18A): did not seem to affect

Molecule: Cn1nccc1Nc1nccc(-c2ccn([C@H](CO)c3ccc(Cl)c(F)c3)c(=O)c2)n1 [Ravoxertinib/GDC-0994, Ravoxertinib]
- TNF secretion (% of total TNF in the supernatant), normalized against DMSO [2]: inhibited
- total TNF level, normalized against DMSO [1, 6]: inhibited
- β-hexosaminidase secretion (% of total activity in the supernatant), normalized against DMSO [3]: inhibited

Molecule: CN(C)CCC=C1c2ccccc2CCc2ccccc21 [amitriptyline]
- serotonin release [4]: without any influence
- histamine release [5]: specifically inhibit

B1: sTNFR1: soluble TNF receptor 1 (Genscript), sequesters secreted TNF (protein, UniProt P19438 30-211, looked up)
extracellular domain: LVPHLGDREKRDSVCPQGKYIHPQNNSICCTKCHKGTYLYNDCPGPGQDTDCRECESGSFTASENHLRHCLSCSKCRKEMGQVEISSCTVDRDTVCGCRKNQYRHYWSENLFQCFNCSLCLNGTVHLSCQEKQNTVCTCHAGFFLRENECVSCSNCKKSLECTKLCLPQIENVKGTEDSGTT
modifications: extracellular domain
- overall level of TNF (total TNF protein) ([1]; sensitized RBL-2H3 cells incubated with sTNFR1 along with TNP-BSA, FIG. 17A): inhibited the overall level of TNF in a concentration dependent fashion
- overall level of TNF (total TNF protein) ([1]; sensitized RBL-2H3 cells incubated with sTNFR1 along with TNP-BSA, FIG. 17A, listed as soluble TNFR1): inhibits antigen-elicited TNF production in a dosage-dependent fashion
